Results published in article PMC3366684, “Studies on the Synthesis of Derivatives of Marine-Derived Bostrycin and Their Structure-Activity Relationship against Tumor Cells” (Marine Drugs, 2012).

What was measured:
MCF-7 cells = experiment: MTT cytotoxicity assay, MCF-7; format: cell-based, human; conditions: for IC50: MCF7, human breast cancer cell line, MTT, 48 h exposure, mean ± SD, three independent experiments
Method: (§1) All compounds were evaluated for their in vitro cytotoxic activity against five human cancer cell lines including human breast MCF-7, human breast MDA-MB-435, human lung A549, human liver HepG2 and human colon HCT-116, and compared with their effects on the immortalized human breast epithelial cell line MCF-10A by MTT assay using epirubicin (an anticancer drug used widely in the clinic) as positive control.
(§2) MCF-7, MDA-MB-435, A549, HepG2 and HCT-116 cells were cultured in Dulbecco’s modification Eagle’s medium (DMEM, Invitrogen, Carlsbad, CA, USA) supplemented with 10% fetal bovine serum (FBS, Hyclone, Logan, UT, USA), 2 mM L-glutamine, 100 μg/mL streptomycin and 100 U/mL penicillin (Invitrogen). MCF-10A cells were cultured in keratinocyte serum free medium (KSFM) supplemented with 0.1–0.2 ng/mL human recombinant epidermal growth factor and 20–30 μg/mL bovine pituitary extract (Invitrogen). The cells were incubated at 37 °C in a humidified atmosphere with 5% CO2.
(§3) Cells were harvested during logarithmic growth phase and seeded in 96-well plates at a density of 1 × 10^4 cells/mL, and cultured at 37 °C in a humidified incubator (5% CO2) for 24 h, followed by exposure to various concentrations of compounds tested for 48 h. Subsequently 20 μL of MTT (Genview, Houston, TX, USA) solution (5 mg/mL) was added to each well and mixed, the cells were then incubated for an additional 4 h. Culture supernatant was moved, 150 μL of DMSO (Sangon Biotech, Shanghai, China) was added to each well to fully dissolve the MTT-formazan crystals. Cell growth inhibition was determined by measuring the absorbance (Abs) at λ = 570 nm using a microplate reader and calculated according to the following equation:
(§4) Growth inhibition = (1 − OD of treated cells/OD of control cells) × 100%
(§5) The half maximal inhibitory concentrations (IC50) were obtained from liner regression analysis of the concentration-response curves plotted for each tested compound.

MDA-MB-435 cells = experiment: MTT cytotoxicity assay, MDA-MB-435; format: cell-based, human; conditions: for IC50: MDA-MB-435, human breast cancer cell line, MTT, 48 h exposure, mean ± SD, three independent experiments
Method: as §1, §2, §3, §4, §5

A549 cells = experiment: MTT cytotoxicity assay, A549; format: cell-based, human; conditions: for IC50: A549, human lung cancer cell line, MTT, 48 h exposure, mean ± SD, three independent experiments
Method: as §1, §2, §3, §4, §5

HepG2 cells = experiment: MTT cytotoxicity assay, HepG2; format: cell-based, human; conditions: for IC50: human liver cancer cell line, MTT, 48 h exposure, mean ± SD, three independent experiments
Method: as §1, §2, §3, §4, §5

HCT-116 cells = experiment: MTT cytotoxicity assay, HCT-116; format: cell-based, human; conditions: for IC50: HCT-116, human colon cancer cell line, MTT, 48 h exposure, mean ± SD, three independent experiments
Method: as §1, §2, §3, §4, §5

[1] = MTT cytotoxicity assay, MCF-10A; format: cell-based; conditions: MCF-10A cells, immortalized human breast epithelial cell line, 48 h exposure, mean ± SD, three independent experiments
Method: as §1, §2, §3, §4, §5

[2] = system: five human cancer cell lines (MCF-7, MDA-MB-435, A549, HepG2, HCT-116); experiment: MTT cytotoxicity assay, panel of five human cancer cell lines (summary statements); format: cell-based; conditions: MCF-7, MDA-MB-435, A549, HepG2 and HCT-116, read-out: IC50 against the tested human cancer cell lines (summary over the panel)
Method: as §1, §2
Cells were harvested during logarithmic growth phase and seeded in 96-well plates at a density of 1 × 10^4 cells/mL, and cultured at 37 °C in a humidified incubator (5% CO2) for 24 h, followed by exposure to various concentrations of compounds tested for 48 h. […] Cell growth inhibition was determined by measuring the absorbance (Abs) at λ = 570 nm using a microplate reader and calculated according to the following equation: […]

[3] = ratio of IC50 values, bostrycin vs compound

SMILES	IC50 (MCF-7 cells) [µM]	IC50 (MDA-MB-435 cells) [µM]	IC50 (A549 cells) [µM]	IC50 (HepG2 cells; Homo sapiens, HepG2, 48 h) [µM]	IC50 (HCT-116 cells) [µM]	IC50 at 48 h [1] [µM]	IC50 [2] [µM]	melting point [°C]	fold more active than bostrycin, MCF-7 (MCF-7 cells; [3]) [fold]	fold more active than bostrycin, MDA-MB-435 (MDA-MB-435 cells; [3]) [fold]	fold more active than bostrycin, A549 (A549 cells; [3]) [fold]	IC50 (HepG2 cells) [µM]	fold more active than bostrycin, HepG2 (HepG2 cells; [3]) [fold]	fold more active than bostrycin, HCT-116 (HCT-116 cells; [3]) [fold]
COc1cc(O)c2c(c1O)C(=O)c1cc(C)ccc1C2=O [Compound 4, Austrocortinin]	> 50	41.6 ± 2.63	> 50	> 50	> 50	> 50	> 50	232 to 233	–	–	–	–	–	–
C[C@]1(O)Cc2c(O)c3c(c(O)c2[C@H](O)[C@H]1O)C(=O)C=C(NCCO)C3=O [Compound 13, 6-(2′-Hydroxyethylamino)-6-demethoxybostrycin]	35.6 ± 1.4	> 50	> 50	32.2 ± 2.43	35.9 ± 1.13	> 50	–	202 to 203	–	–	–	–	–	–
C[C@]1(O)Cc2c(O)c3c(c(O)c2[C@H](O)[C@H]1O)C(=O)C=C(NCCOCCO)C3=O [Compound 14, 6-[(2″-Hydroxyethoxy)ethylamino]-6-demethoxybostrycin]	> 50	> 50	> 50	> 50	> 50	> 50	–	112 to 113	–	–	–	–	–	–
C[C@]1(O)Cc2c(O)c3c(c(O)c2[C@H](O)[C@H]1O)C(=O)C=C(Nc1ccccc1)C3=O [Compound 15, 6-(Phenylamino)-6-demethoxybostrycin]	3.72 ± 0.27	10.3 ± 0.45	4.87 ± 0.43	> 50	4.84 ± 0.25	41.6 ± 0.51	–	226 to 227	–	–	–	–	–	–
C[C@]1(O)Cc2c(O)c3c(c(O)c2[C@H](O)[C@H]1O)C(=O)C=C(NCc1ccccc1)C3=O [Compound 17, 6-(Benzylamino)-6-demethoxybostrycin]	28.7 ± 2.37	40.4 ± 1.49	21.3 ± 2.02	> 50	20.6 ± 0.37	19.8 ± 0.63	–	153 to 154	–	–	–	–	–	–
COc1ccc(CNC2=CC(=O)c3c(O)c4c(c(O)c3C2=O)C[C@](C)(O)[C@H](O)[C@H]4O)cc1 [Compound 18, 6-(p-Methoxybenzylamino)-6-demethoxybostrycin]	9.17 ± 0.28	25.6 ± 1.71	15.2 ± 0.42	> 50	13.6 ± 1.85	27.7 ± 0.93	–	149 to 150	–	–	–	–	–	–
C[C@]1(O)Cc2c(O)c3c(c(O)c2[C@H](O)[C@H]1O)C(=O)C=C(NCc1ccc(F)cc1)C3=O [Compound 19, 6-(p-Fluorobenzylamino)-6-demethoxybostrycin]	7.94 ± 0.26	7.86 ± 1.2	6.25 ± 0.43	> 50	4.92 ± 0.38	7.5 ± 0.69	–	147 to 148	–	–	–	–	–	–
CCSC1=C(SCC)C(=O)c2c(O)c3c(c(O)c2C1=O)C[C@](C)(O)[C@H](O)[C@H]3O [Compound 23, 6,7-bis(Ethylthio)-6-demethoxybostrycin]	0.71 ± 0.01	0.76 ± 0.06	4.07 ± 0.51	6.9 ± 0.26	0.95 ± 0.06	14.8 ± 0.96	–	180 to 181	–	–	–	–	–	–
CCCCSC1=C(SCCCC)C(=O)c2c(O)c3c(c(O)c2C1=O)C[C@](C)(O)[C@H](O)[C@H]3O [Compound 24, 6,7-bis(n-Butylthio)-6-demethoxybostrycin]	2.45 ± 0.48	7.05 ± 0.56	4.06 ± 0.42	4.03 ± 0.13	3.25 ± 0.54	30.6 ± 2.54	–	124 to 125	–	–	–	–	–	–
CCCCCCSC1=C(SCCCCCC)C(=O)c2c(O)c3c(c(O)c2C1=O)C[C@](C)(O)[C@H](O)[C@H]3O [Compound 25, 6,7-bis(n-Hexylthio)-6-demethoxybostrycin]	2.6 ± 0.45	10.6 ± 1.11	0.71 ± 0.01	3.33 ± 0.66	0.74 ± 0.1	35 ± 1.94	–	112 to 113	–	–	–	–	–	–
C[C@]1(O)Cc2c(O)c3c(c(O)c2[C@H](O)[C@H]1O)C(=O)C1=C(SCCS1)C3=O [Compound 28, 6,7-(Ethan-1′,2′-yl-dithio)-6-demethoxybostrycin]	0.57 ± 0.04	0.63 ± 0.45	0.37 ± 0.04	–	0.68 ± 0.08	0.81 ± 0.11	–	> 300	3.8	4.5	7.1	0.82 ± 0.01	9.4	7.0
